Test results taken from ChEMBL document CHEMBL3600324, “Design, synthesis and evaluation of MCH receptor 1 antagonists--Part II: Optimization of pyridazines toward reduced phospholipidosis and hERG inhibition” (Bioorg Med Chem Lett, 2015).

Columns and labels:
[1] = target: 5-hydroxytryptamine receptor 2A (Homo sapiens, UniProt P28223); test: Binding affinity to 5HT2A receptor (unknown origin)
[2] = target: Melanin-concentrating hormone receptor 1 (Homo sapiens, UniProt Q99705); test: Displacement of [125I-MCH] from human MCH receptor 1 expressed in CHO cell membranes by scintillation counting method
Chain of Melanin-concentrating hormone receptor 1 (Q99705 whole entry): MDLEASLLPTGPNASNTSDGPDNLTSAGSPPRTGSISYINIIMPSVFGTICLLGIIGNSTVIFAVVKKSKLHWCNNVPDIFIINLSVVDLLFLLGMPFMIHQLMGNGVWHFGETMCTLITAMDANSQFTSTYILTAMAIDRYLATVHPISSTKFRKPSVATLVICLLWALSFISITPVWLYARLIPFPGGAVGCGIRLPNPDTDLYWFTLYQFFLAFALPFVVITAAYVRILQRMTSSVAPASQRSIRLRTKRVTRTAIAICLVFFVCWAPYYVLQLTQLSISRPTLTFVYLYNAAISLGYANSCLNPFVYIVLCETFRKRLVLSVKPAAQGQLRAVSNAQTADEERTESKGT

U-937 = test: Toxicity in human U937 cells assessed as phospholipidosis first effect concentration by Nile red based fluorescence assay; assay type: cell-based
[3] = target: T1, Muscarinic acetylcholine receptor M1 (Homo sapiens, UniProt P11229); test: Binding affinity to muscarinic M1 receptor (unknown origin)
T1 sequence (P11229 whole entry): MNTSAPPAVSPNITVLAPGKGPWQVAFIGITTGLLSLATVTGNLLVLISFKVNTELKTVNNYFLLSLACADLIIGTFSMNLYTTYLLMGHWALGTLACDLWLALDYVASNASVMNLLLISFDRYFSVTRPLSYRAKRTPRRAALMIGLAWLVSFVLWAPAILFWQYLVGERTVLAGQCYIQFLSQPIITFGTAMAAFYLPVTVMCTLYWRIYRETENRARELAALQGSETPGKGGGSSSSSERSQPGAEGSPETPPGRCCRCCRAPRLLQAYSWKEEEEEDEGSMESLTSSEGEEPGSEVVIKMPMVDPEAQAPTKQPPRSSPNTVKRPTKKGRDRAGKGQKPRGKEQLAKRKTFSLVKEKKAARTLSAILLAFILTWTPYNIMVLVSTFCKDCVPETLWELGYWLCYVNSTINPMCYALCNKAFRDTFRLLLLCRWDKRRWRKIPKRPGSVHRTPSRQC

hERG (KCNH2) [4] = target: T2, hERG (KCNH2) (Homo sapiens, UniProt Q12809); test: Inhibition of human ERG at 1 uM by patch clamp assay
T2 sequence (Q12809 whole entry): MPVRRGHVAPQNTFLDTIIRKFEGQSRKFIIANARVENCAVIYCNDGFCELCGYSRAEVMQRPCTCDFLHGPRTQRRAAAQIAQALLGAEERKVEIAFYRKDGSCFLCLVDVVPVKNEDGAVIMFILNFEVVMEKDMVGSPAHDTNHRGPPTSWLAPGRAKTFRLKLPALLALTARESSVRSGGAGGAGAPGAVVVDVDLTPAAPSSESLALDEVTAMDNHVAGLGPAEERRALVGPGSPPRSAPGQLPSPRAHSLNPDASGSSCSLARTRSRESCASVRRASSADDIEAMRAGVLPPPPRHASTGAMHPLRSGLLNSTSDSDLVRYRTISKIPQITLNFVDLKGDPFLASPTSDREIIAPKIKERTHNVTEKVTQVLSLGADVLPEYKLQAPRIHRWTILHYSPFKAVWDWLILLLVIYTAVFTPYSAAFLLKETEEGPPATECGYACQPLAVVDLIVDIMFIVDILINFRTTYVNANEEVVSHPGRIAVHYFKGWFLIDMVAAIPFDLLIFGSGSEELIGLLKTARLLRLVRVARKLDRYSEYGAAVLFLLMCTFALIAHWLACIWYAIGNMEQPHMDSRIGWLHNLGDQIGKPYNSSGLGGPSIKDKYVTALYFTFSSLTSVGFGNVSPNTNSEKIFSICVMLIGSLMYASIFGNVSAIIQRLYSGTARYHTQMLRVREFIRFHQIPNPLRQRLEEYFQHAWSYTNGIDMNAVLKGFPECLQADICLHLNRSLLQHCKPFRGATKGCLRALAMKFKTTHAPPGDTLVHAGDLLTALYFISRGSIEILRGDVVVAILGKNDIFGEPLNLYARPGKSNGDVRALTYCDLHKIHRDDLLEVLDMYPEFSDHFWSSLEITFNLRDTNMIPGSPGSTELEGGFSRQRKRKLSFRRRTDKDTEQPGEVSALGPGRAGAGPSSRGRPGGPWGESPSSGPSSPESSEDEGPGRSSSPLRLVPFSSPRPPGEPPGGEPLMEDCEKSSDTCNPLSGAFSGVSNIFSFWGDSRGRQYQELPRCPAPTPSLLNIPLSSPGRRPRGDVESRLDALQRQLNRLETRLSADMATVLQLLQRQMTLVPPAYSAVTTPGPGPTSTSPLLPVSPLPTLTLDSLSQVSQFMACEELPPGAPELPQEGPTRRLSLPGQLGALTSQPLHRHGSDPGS

[5] = Dissociation constant, pKa of the compound; assay type: physicochemical
Rattus norvegicus [6] = test: Dose normalized Cmax in Wistar rat at 11.9 umol/kg, po; assay type: ADME, organism-based; settings: in vivo
[7] = Mean residence time in Wistar rat at 11.9 umol/kg, po; assay type: ADME, organism-based; settings: in vivo
[8] = Tmax in Wistar rat at 11.9 umol/kg, po; assay type: ADME, organism-based; settings: in vivo
Rattus norvegicus [9] = test: AUC in Wistar rat at 11.9 umol/kg, po; assay type: ADME, organism-based; settings: in vivo
hERG (KCNH2) [10] = target: T2, hERG (KCNH2); test: Inhibition of human ERG at 10 uM by patch clamp assay
[11] = Tmax in Wistar rat at 6.7 umol/kg, po; assay type: ADME, organism-based; settings: in vivo
Rattus norvegicus [12] = test: AUC in Wistar rat at 6.7 umol/kg, po; assay type: ADME, organism-based; settings: in vivo
Rattus norvegicus [13] = test: Dose normalized Cmax in Wistar rat at 6.7 umol/kg, po; assay type: ADME, organism-based; settings: in vivo
[14] = Mean residence time in Wistar rat at 6.7 umol/kg, po; assay type: ADME, organism-based; settings: in vivo
CHO [15] = test: Selectivity index, ratio of IC50 for 5HT2A receptor (unknown origin) to IC50 for human MCH receptor 1 expressed in CHO cell membranes; assay type: cell-based
CHO [16] = test: Selectivity index, ratio of IC50 for muscarinic M1 receptor (unknown origin) to IC50 for human MCH receptor 1 expressed in CHO cell membranes; assay type: cell-based
[17] = target: Voltage-gated inwardly rectifying potassium channel KCNH2 (Homo sapiens, UniProt Q12809); test: Inhibition of human ERG by patch clamp assay
Chain of Voltage-gated inwardly rectifying potassium channel KCNH2 (Q12809 whole entry): as above

Rattus norvegicus [18] = test: AUC in Wistar rat at 10.9 umol/kg, po; assay type: ADME, organism-based; settings: in vivo
[19] = Tmax in Wistar rat at 10.9 umol/kg, po; assay type: ADME, organism-based; settings: in vivo
Rattus norvegicus [20] = test: Dose normalized Cmax in Wistar rat at 10.9 umol/kg, po; assay type: ADME, organism-based; settings: in vivo
[21] = Mean residence time in Wistar rat at 10.9 umol/kg, po; assay type: ADME, organism-based; settings: in vivo

Chain of 5-hydroxytryptamine receptor 2A (P28223 whole entry): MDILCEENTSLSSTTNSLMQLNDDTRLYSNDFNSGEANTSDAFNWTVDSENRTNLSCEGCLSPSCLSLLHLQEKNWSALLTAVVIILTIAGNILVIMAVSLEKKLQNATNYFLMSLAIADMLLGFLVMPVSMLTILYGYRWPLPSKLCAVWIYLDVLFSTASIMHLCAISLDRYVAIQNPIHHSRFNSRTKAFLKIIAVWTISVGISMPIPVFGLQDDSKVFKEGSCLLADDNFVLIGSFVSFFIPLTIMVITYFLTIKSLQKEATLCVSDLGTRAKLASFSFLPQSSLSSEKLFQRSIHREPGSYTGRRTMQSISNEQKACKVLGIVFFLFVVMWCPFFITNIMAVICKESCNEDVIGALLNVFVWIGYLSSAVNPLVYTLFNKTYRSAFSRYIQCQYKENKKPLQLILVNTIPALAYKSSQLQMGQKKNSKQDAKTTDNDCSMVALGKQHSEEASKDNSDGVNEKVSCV

Compound | IC50 [1] [nM] | IC50 [2] [nM] | IC50 [3] [nM] | Activity (U-937) [µM] | inhibition at 1 µM (hERG (KCNH2) [4]) [%] | further results
OCC1CCN(Cc2ccc(OCCCc3ccc(Oc4ccccc4)nn3)cc2)CC1 | > 10000 | – | 2110 | 100 | 8 | –
CC(=O)NC1CCN(Cc2ccc(OCCCc3ccc(Oc4ccccc4)nn3)cc2)CC1 | 9650 | 10 | > 10000 | 100 | – | inhibition at 10 µM (hERG (KCNH2) [10]): 13%; Tmax [11]: 0.8 h; AUC/dose (Rattus norvegicus [12]): 175 nM·h; Cmax/dose (Rattus norvegicus [13]): 531 nM; MRT [14]: 2.9 h
OCC1CCN(Cc2ccc(OCCCc3ccc(-c4ccc(Cl)cc4)nn3)cc2)CC1 | 790 | – | 1650 | 12.5 | – | –
O=C(/C=C/c1ccc(-c2ccc(Cl)cc2)cc1)Nc1ccc(CN2CCCCC2)cc1 | 1930 | 16 | 401 | – | – | Ratio IC50 (CHO [15]): 121; Ratio IC50 (CHO [16]): 25
OC1CCN(Cc2ccc(NCCCc3ccc(Oc4ccccc4)nn3)cc2)CC1 | > 10000 | 24 | > 10000 | 50 | – | inhibition at 10 µM (hERG (KCNH2) [10]): 35%; pKa [5]: 9.1
O=C(COc1ccc(-c2ccc(Cl)cc2)cc1)Nc1ccc(CN2CCCCC2)cc1 | 91 | 94 | 446 | – | – | Ratio IC50 (CHO [15]): 1; Ratio IC50 (CHO [16]): 5
OC1CCN(Cc2ccc(OCCCc3ccc(-c4ccc(Cl)cc4)nn3)cc2)CC1 | 1410 | – | > 10000 | 25 | 38 | –
O[C@@H]1CCCN(Cc2ccc(OCCCc3ccc(Oc4ccccc4)nn3)cc2)C1 | > 10000 | – | > 10000 | – | – | –
OC1CCN(Cc2ccc(NCCCc3ccc(OCc4ccccc4)nn3)cc2)CC1 | > 10000 | 3 | > 10000 | 50 | 4 | –
O=C(CCc1ccc(-c2ccc(Cl)cc2)cc1)Nc1ccc(CN2CCCCC2)cc1 | 138 | 38 | 89 | – | – | Ratio IC50 (CHO [15]): 4; Ratio IC50 (CHO [16]): 2
CN(CCCc1ccc(-c2ccc(Cl)cc2)cc1)c1ccc(CN2CCCCC2)cc1 | 646 | – | 419 | – | – | –
O=C(C#Cc1ccc(-c2ccc(Cl)cc2)cc1)Nc1ccc(CN2CCCCC2)cc1 | – | – | 225 | – | – | –
CN(C(=O)/C=C/c1ccc(-c2ccc(Cl)cc2)cc1)c1ccc(CN2CCCCC2)cc1 | 362 | 634 | 625 | – | – | Ratio IC50 (CHO [15]): 1; Ratio IC50 (CHO [16]): 1
O=C(NCc1ccc(-c2ccc(Cl)cc2)cc1)Nc1ccc(CN2CCCCC2)cc1 | 29 | – | 511 | – | – | –
CC(=O)NC1CCN(Cc2ccc(OCCCc3ccc(Cc4ccccc4)nn3)cc2)CC1 | > 10000 | – | > 10000 | 100 | 13 | –
O[C@@H]1CCCN(Cc2ccc(OCCCc3ccc(-c4ccc(Cl)cc4)nn3)cc2)C1 | 595 | 15 | 5470 | 6.25 | 13 | –
CC(=O)NC1CCN(Cc2ccc(NCCCc3ccc(Oc4ccccc4)nn3)cc2)CC1 | > 10000 | – | > 10000 | > 100 | – | IC50 [17]: > 10000 nM; AUC/dose (Rattus norvegicus [18]): 123 nM·h; Tmax [19]: 2.8 h; Cmax/dose (Rattus norvegicus [20]): 24 nM; MRT [21]: 6.4 h

The next lines start with results.

IC50 [1] [nM] | IC50 [2] [nM] | IC50 [3] [nM] | Compound | Activity (U-937) [µM] | inhibition at 1 µM (hERG (KCNH2) [4]) [%] | further results
713 | 15 | 4470 | CC(=O)NC1CCN(Cc2ccc(OCCCc3ccc(-c4ccc(F)cc4)nn3)cc2)CC1 | 100 | – | –
> 10000 | 10 | > 10000 | COc1ccc(-c2ccc(CCCNc3ccc(CN4CCC(NC(C)=O)CC4)cc3)nn2)cc1 | 100 | 7 | pKa [5]: 8.8; Cmax/dose (Rattus norvegicus [6]): 83 nM; MRT [7]: 4 h; Tmax [8]: 1.5 h; AUC/dose (Rattus norvegicus [9]): 476 nM·h
8820 | 20 | > 10000 | COc1ccc(-c2ccc(CCCNc3ccc(CN4CCC(O)CC4)cc3)nn2)cc1 | 50 | 10 | pKa [5]: 8.6
138 | 4 | 310 | Clc1ccc(-c2ccc(CCCNc3ccc(CN4CCCCC4)cc3)nn2)cc1 | 6.25 | 8 | –
4580 | – | 1030 | COc1ccc(-c2ccc(CCCNc3ccc(CN(C)C)cc3)nn2)cc1 | – | – | –
4540 | 95 | 1860 | COc1ccc(-c2ccc(CCCNc3ccc(CN4CCCC4)cc3)nn2)cc1 | – | – | –
34 | – | 3740 | Fc1ccc(-c2ccc(CCCNc3ccc(CN4CCCCC4)cc3)nn2)cc1 | – | – | –
> 10000 | 20 | > 10000 | COc1ccc(-c2ccc(CCCNc3ccc(CN4CCOCC4)cc3)nn2)cc1 | 12.5 | 5 | pKa [5]: 7.6
242 | 186 | > 10000 | OC1CCN(Cc2ccc(OCCCc3ccc(-c4ccc(F)cc4)nn3)cc2)CC1 | – | – | –
1460 | – | 1920 | N#Cc1ccc(-c2ccc(CCCNc3ccc(CN4CCCCC4)cc3)nn2)cc1 | – | – | –
680 | 3 | 325 | Clc1ccc(-c2ccc(CCCNc3ccc(CN4CCCCC4)cc3)cc2)cc1 | – | 76 | Ratio IC50 (CHO [15]): 230; Ratio IC50 (CHO [16]): 110
> 10000 | – | > 10000 | COc1ccc(-c2ccc(CCCNc3ccc(CN4CCCC(O)C4)cc3)nn2)cc1 (stereo not drawn) | 25 | 10 | –
1810 | 7 | 962 | COc1ccc(-c2ccc(CCCNc3ccc(CN4CCCCC4)cc3)nn2)cc1 | 6.25 | – | pKa [5]: 9
